From article PMC10945555, “Improving Activity of New Arylurea Agents against Multidrug-Resistant and Biofilm-Producing Staphylococcus epidermidis” (ACS Medicinal Chemistry Letters, 2024)
Values after ≈ are worked out from the molar mass of the structure shown. Where two headings read alike, the source gives them in different places.

Legend:
[1] = system: Staphylococcus aureus ATCC BAA-976; assay: MIC, broth microdilution, MDR/BPSA reference strain; format: cell-based; conditions: ATCCBAA976; Staphylococcus aureus ATCC BAA-976; read-out: MIC MDR/BPSA
Procedure, shortened: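 Compounds tested as free bases dissolved in DMSO (1 mg/mL stock); determinations done twice; linezolid as positive control.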

[2] = system: clinical MDR Staphylococcus epidermidis isolates; assay: MIC, broth microdilution, 81 clinical MDR strains; format: cell-based; conditions: Staphylococcus epidermidis
Description: 2 Biological assay protocols
Microbiological tests were carried out under aseptic conditions in a laminar chamber of the 2nd […]
(BioTectum 1.2, Alchem Poland). The assessment of antimicrobial activity was carried out for final compounds in the form of free bases, soluble in DMSO (Merck, Germany), at the initial […]
concentration of 1 mg/mL. […]
were provided by Cayman Chemical, USA. […]
The antibacterial activity of selected compounds was also tested on a panel of 81 unrelated, multidrug -resistant clinical strains of Staphylococcus epidermidis from the own collection of the Department of Pharmaceutical Microbiology of the Jagiellonian University Medical College.
2.2 Effect of evaluated compounds on planktonic cells
The susceptibility of three reference bacterial strains (Staphylococcus epidermidis ATCC […]
Table S1) and 81 clinical MDR S. epidermidis (Table S2) to the tested compounds was assessed by determining the MIC value (Minimal Inhibitory Concentration) by microdilution in a liquid medium in 96-well flat-bottom cell culture plates (Nest Biotechnology Scientific, USA). The antibacterial properties of the compo unds were tested in the concentration range from 50 µg/mL to 0.1 µg/mL by making a series of double dilutions of the compound in liquid Mueller -Hinton II Broth Cation Adjusted (MHB II, BBL TM, USA) according to the European Committee on […]
Antimicrobial Susceptibility Testing guidelines (EUCAST).2,3 The determinations were performed twice. The MIC50 and MIC90 values were determined for each of the tested

horse red blood cells = assay: Hemolytic activity assay
Description: 2.3.3 Hemolytic activity assay
The hemolytic properties of tested compound were evaluated according to previously reported procedure.6 Defibrinated horse red blood cells purchased from Thermo Fisher Scientific (Germany) were washed with PBS (3000 rpm, 10 min at 4 °C) for three times followed by PBS dilution to obtain a 8% suspension. Then, 100 μL of the resulting suspensions […]
were treated with 100 μL of tested compound at the final concentration of 200 μM, and incubated at 37 °C for 1 h. Triton X-100 (2%) and PBS were used as positive and negative controls, respectively. After centrifugation at 3000 rpm for 3 min, 100 μL of the supernatants were transferred to a 96 well microtiter plate and the hemoglobin release was determined in a SpectraMax iD3 reader (Molecular Devices) by absorption at 540 nm. […]

O=S(=O)(NC1CCN(CCC(Oc2ccc(C(F)(F)F)cc2)c2ccccc2)CC1)c1cccc(Cl)c1 (stereo not drawn) [Compound 12]
MIC [1]: 50 µg/mL (≈ 90.4 µM) | MIC ([2]; clinical strain 1 (Table S2), read-out: MIC): 0.2 µg/mL (≈ 0.362 µM) | MIC ([2]; clinical strain 2 (Table S2), read-out: MIC): 1.6 µg/mL (≈ 2.89 µM) | MIC ([2]; clinical strain 3 (Table S2), read-out: MIC): 0.8 µg/mL (≈ 1.45 µM) | MIC ([2]; clinical strain 4 (Table S2), read-out: MIC): 0.8 µg/mL (≈ 1.45 µM) | MIC ([2]; clinical strain 5 (Table S2), read-out: MIC): 1.6 µg/mL (≈ 2.89 µM) | MIC ([2]; clinical strain 6 (Table S2), read-out: MIC): 3.12 µg/mL (≈ 5.65 µM) | MIC ([2]; clinical strain 7 (Table S2), read-out: MIC): 6.25 µg/mL (≈ 11.3 µM) | MIC ([2]; clinical strain 8 (Table S2), read-out: MIC): 1.6 µg/mL (≈ 2.89 µM) | MIC ([2]; clinical strain 9 (Table S2), read-out: MIC): 3.12 µg/mL (≈ 5.65 µM) | MIC ([2]; clinical strain 10 (Table S2), read-out: MIC): 6.25 µg/mL (≈ 11.3 µM) | MIC ([2]; clinical strain 11 (Table S2), read-out: MIC): 6.25 µg/mL (≈ 11.3 µM) | MIC ([2]; clinical strain 12 (Table S2), read-out: MIC): 6.25 µg/mL (≈ 11.3 µM) | MIC ([2]; clinical strain 13 (Table S2), read-out: MIC): 6.25 µg/mL (≈ 11.3 µM) | MIC ([2]; clinical strain 14 (Table S2), read-out: MIC): 50 µg/mL (≈ 90.4 µM) | MIC ([2]; clinical strain 15 (Table S2), read-out: MIC): 3.12 µg/mL (≈ 5.65 µM) | MIC ([2]; clinical strain 16 (Table S2), read-out: MIC): 3.12 µg/mL (≈ 5.65 µM) | MIC ([2]; clinical strain 17 (Table S2), read-out: MIC): 3.12 µg/mL (≈ 5.65 µM) | MIC ([2]; clinical strain 18 (Table S2), read-out: MIC): 3.12 µg/mL (≈ 5.65 µM) | MIC ([2]; clinical strain 19 (Table S2), read-out: MIC): 3.12 µg/mL (≈ 5.65 µM) | MIC ([2]; clinical strain 20 (Table S2), read-out: MIC): 6.25 µg/mL (≈ 11.3 µM) | MIC ([2]; clinical strain 21 (Table S2), read-out: MIC): 6.25 µg/mL (≈ 11.3 µM) | MIC ([2]; clinical strain 22 (Table S2), read-out: MIC): 12.5 µg/mL (≈ 22.6 µM) | MIC ([2]; clinical strain 23 (Table S2), read-out: MIC): 12.5 µg/mL (≈ 22.6 µM) | MIC ([2]; clinical strain 24 (Table S2), read-out: MIC): 12.5 µg/mL (≈ 22.6 µM) | MIC ([2]; clinical strain 25 (Table S2), read-out: MIC): 12.5 µg/mL (≈ 22.6 µM) | MIC ([2]; clinical strain 26 (Table S2), read-out: MIC): 12.5 µg/mL (≈ 22.6 µM) | MIC ([2]; clinical strain 27 (Table S2), read-out: MIC): 25 µg/mL (≈ 45.2 µM) | MIC ([2]; clinical strain 28 (Table S2), read-out: MIC): 12.5 µg/mL (≈ 22.6 µM) | MIC ([2]; clinical strain 29 (Table S2), read-out: MIC): 12.5 µg/mL (≈ 22.6 µM) | MIC ([2]; clinical strain 30 (Table S2), read-out: MIC): 25 µg/mL (≈ 45.2 µM) | MIC ([2]; clinical strain 31 (Table S2), read-out: MIC): 50 µg/mL (≈ 90.4 µM) | MIC ([2]; clinical strain 32 (Table S2), read-out: MIC): 50 µg/mL (≈ 90.4 µM) | MIC ([2]; clinical strain 33 (Table S2), read-out: MIC): 25 µg/mL (≈ 45.2 µM) | MIC ([2]; clinical strain 34 (Table S2), read-out: MIC): 50 µg/mL (≈ 90.4 µM) | MIC ([2]; clinical strain 35 (Table S2), read-out: MIC): 50 µg/mL (≈ 90.4 µM) | MIC ([2]; clinical strain 36 (Table S2), read-out: MIC): 50 µg/mL (≈ 90.4 µM) | MIC ([2]; clinical strain 37 (Table S2), read-out: MIC): 50 µg/mL (≈ 90.4 µM) | MIC ([2]; clinical strain 38 (Table S2), read-out: MIC): 50 µg/mL (≈ 90.4 µM) | MIC ([2]; clinical strain 39 (Table S2), read-out: MIC): 50 µg/mL (≈ 90.4 µM) | MIC ([2]; clinical strain 40 (Table S2), read-out: MIC): 50 µg/mL (≈ 90.4 µM) | MIC ([2]; clinical strain 41 (Table S2), read-out: MIC): 12.5 µg/mL (≈ 22.6 µM) | MIC ([2]; clinical strain 42 (Table S2), read-out: MIC): 50 µg/mL (≈ 90.4 µM) | MIC ([2]; clinical strain 43 (Table S2), read-out: MIC): 25 µg/mL (≈ 45.2 µM) | MIC ([2]; clinical strain 44 (Table S2), read-out: MIC): 50 µg/mL (≈ 90.4 µM) | MIC ([2]; clinical strain 45 (Table S2), read-out: MIC): 50 µg/mL (≈ 90.4 µM) | MIC ([2]; clinical strain 46 (Table S2), read-out: MIC): 50 µg/mL (≈ 90.4 µM) | MIC ([2]; clinical strain 47 (Table S2), read-out: MIC): 50 µg/mL (≈ 90.4 µM) | MIC ([2]; clinical strain 48 (Table S2), read-out: MIC): 3.12 µg/mL (≈ 5.65 µM) | MIC ([2]; clinical strain 49 (Table S2), read-out: MIC): 0.1 µg/mL (≈ 0.181 µM) | MIC ([2]; clinical strain 50 (Table S2), read-out: MIC): 50 µg/mL (≈ 90.4 µM) | MIC ([2]; clinical strain 51 (Table S2), read-out: MIC): 50 µg/mL (≈ 90.4 µM) | MIC ([2]; clinical strain 52 (Table S2), read-out: MIC): 3.12 µg/mL (≈ 5.65 µM) | MIC ([2]; clinical strain 53 (Table S2), read-out: MIC): 6.25 µg/mL (≈ 11.3 µM) | MIC ([2]; clinical strain 54 (Table S2), read-out: MIC): 50 µg/mL (≈ 90.4 µM) | MIC ([2]; clinical strain 55 (Table S2), read-out: MIC): 6.25 µg/mL (≈ 11.3 µM) | MIC ([2]; clinical strain 56 (Table S2), read-out: MIC): 3.12 µg/mL (≈ 5.65 µM) | MIC ([2]; clinical strain 57 (Table S2), read-out: MIC): 50 µg/mL (≈ 90.4 µM) | MIC ([2]; clinical strain 58 (Table S2), read-out: MIC): 3.12 µg/mL (≈ 5.65 µM) | MIC ([2]; clinical strain 59 (Table S2), read-out: MIC): 50 µg/mL (≈ 90.4 µM) | MIC ([2]; clinical strain 60 (Table S2), read-out: MIC): 3.12 µg/mL (≈ 5.65 µM) | MIC ([2]; clinical strain 61 (Table S2), read-out: MIC): 50 µg/mL (≈ 90.4 µM) | MIC ([2]; clinical strain 62 (Table S2), read-out: MIC): 6.25 µg/mL (≈ 11.3 µM) | MIC ([2]; clinical strain 63 (Table S2), read-out: MIC): 1.6 µg/mL (≈ 2.89 µM) | MIC ([2]; clinical strain 64 (Table S2), read-out: MIC): 3.12 µg/mL (≈ 5.65 µM) | MIC ([2]; clinical strain 65 (Table S2), read-out: MIC): 3.12 µg/mL (≈ 5.65 µM) | MIC ([2]; clinical strain 66 (Table S2), read-out: MIC): 50 µg/mL (≈ 90.4 µM) | MIC ([2]; clinical strain 67 (Table S2), read-out: MIC): 50 µg/mL (≈ 90.4 µM) | MIC ([2]; clinical strain 68 (Table S2), read-out: MIC): 50 µg/mL (≈ 90.4 µM) | MIC ([2]; clinical strain 69 (Table S2), read-out: MIC): 1.6 µg/mL (≈ 2.89 µM) | MIC ([2]; clinical strain 70 (Table S2), read-out: MIC): 50 µg/mL (≈ 90.4 µM) | MIC ([2]; clinical strain 71 (Table S2), read-out: MIC): 50 µg/mL (≈ 90.4 µM) | MIC ([2]; clinical strain 72 (Table S2), read-out: MIC): 3.12 µg/mL (≈ 5.65 µM) | MIC ([2]; clinical strain 73 (Table S2), read-out: MIC): 0.8 µg/mL (≈ 1.45 µM) | MIC ([2]; clinical strain 74 (Table S2), read-out: MIC): 50 µg/mL (≈ 90.4 µM) | MIC ([2]; clinical strain 75 (Table S2), read-out: MIC): 6.25 µg/mL (≈ 11.3 µM) | MIC ([2]; clinical strain 76 (Table S2), read-out: MIC): 0.8 µg/mL (≈ 1.45 µM) | MIC ([2]; clinical strain 77 (Table S2), read-out: MIC): 3.12 µg/mL (≈ 5.65 µM) | MIC ([2]; clinical strain 78 (Table S2), read-out: MIC): 6.25 µg/mL (≈ 11.3 µM) | MIC ([2]; clinical strain 79 (Table S2), read-out: MIC): 3.12 µg/mL (≈ 5.65 µM) | MIC ([2]; clinical strain 80 (Table S2), read-out: MIC): 12.5 µg/mL (≈ 22.6 µM) | MIC ([2]; clinical strain 81 (Table S2), read-out: MIC): 6.25 µg/mL (≈ 11.3 µM) | MIC ([2]; mean of MIC values against clinical MDR-SE isolates, read-out: mean MIC): 20.4 µg/mL (≈ 36.9 µM) | MIC50 ([2]; 81 clinical strains, concentration inhibiting growth of 50% clinical isolates): 6.25 µg/mL (≈ 11.3 µM) | MIC90 ([2]; 81 clinical strains, concentration inhibiting growth of 90% of clinical isolates): 50 µg/mL (≈ 90.4 µM) | %hem (hemolytic activity) (horse red blood cells; 200 μM, 1 h, n = 3): 0.48% | lysis of erythrocytes (horse red blood cells; concentrations up to 200 μM): None of them caused lysis of erythrocytes
